Literature values, collected in patent US20180250233A1, “TABLETS HAVING MEDIA INDEPENDENT ACTIVE SUBSTANCE DELIVERY” (MERCK PATENT GMBH, priority 2015, published 2018).

## CC(C)NCC(O)COc1cccc2ccccc12 (centres unmarked) [propranolol]
In vivo
  elimination half-life: 2 to 6 h
Oral administration, pronounced first-pass metabolism
  bioavailability: 25-30%
